The supplement of paper PMC10307832

Legend:
Assay in all cases: relative viability (nuclei count vs DMSO), 5 days (fraction); higher = more cells survive
EMC-BAC-2 = tested on: EMC-BAC-2
Method in brief: (§1)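 Relative viability divides the nuclei count in treated wells by that in vehicle wells. Lung cancer cell lines were seeded in 1536-well plates, dosed by pin tool the next day, and fixed and stained after 5 days in one step with final 0.05% Triton X-100, 1% formaldehyde and 1 ug/ml Hoechst. Dosing was a single drug or a fixed anchor-drug dose plus five library-drug doses (not always all listed) in √10 steps, and values are medians of duplicate plates imaged at 4×.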

EPLC-272H = tested on: EPLC-272H
Method in brief: as §1

H3255 = tested on: H3255
Method in brief: as §1

HOP-62 = tested on: HOP-62
Method in brief: as §1

LCLC-97TM1 = tested on: LCLC-97TM1
Method in brief: as §1

LXF-289 = tested on: LXF-289
Method in brief: as §1

NCI-H1563 = tested on: NCI-H1563
Method in brief: as §1

NCI-H1915 = tested on: NCI-H1915
Method in brief: as §1

NCI-H1993 = tested on: NCI-H1993
Method in brief: as §1

NCI-H2009 = tested on: NCI-H2009
Method in brief: as §1

NCI-H2023 = tested on: NCI-H2023
Method in brief: as §1

NCI-H2085 = tested on: NCI-H2085
Method in brief: as §1

NCI-H2126 = tested on: NCI-H2126
Method in brief: as §1

NCI-H2347 = tested on: NCI-H2347
Method in brief: as §1

NCI-H322M = tested on: NCI-H322M
Method in brief: as §1

NCI-H647 = tested on: NCI-H647
Method in brief: as §1

NCI-H661 = tested on: NCI-H661
Method in brief: as §1

NCI-H727 = tested on: NCI-H727
Method in brief: as §1

PC-14 = tested on: PC-14
Method in brief: as §1

SK-LU-1 = tested on: SK-LU-1
Method in brief: as §1

SW 1573 = tested on: SW 1573
Method in brief: as §1

Work on C=C1C(=O)O[C@@H](CCCCCCCC)[C@@H]1C(=O)O [C-75] + Cc1nc(NC(=O)N2CCC[C@H]2C(N)=O)sc1-c1ccnc(C(C)(C)C(F)(F)F)c1 [Alpelisib] (partner 2 µM) yielded a relative viability (EMC-BAC-2; first compound 0.08 µM) of 0.726, a relative viability (EMC-BAC-2; first compound 0.253 µM) of 0.688 and a relative viability (EMC-BAC-2; first compound 0.8 µM) of 0.717. The relative viability (EMC-BAC-2; first compound 2.53 µM) was 0.679, the relative viability (EMC-BAC-2; first compound 8 µM) was 0.726 and the relative viability (EPLC-272H; first compound 0.08 µM) was 0.95. For the same compound, the relative viability (EPLC-272H; first compound 0.253 µM) was 1.03, the relative viability (EPLC-272H; first compound 0.8 µM) was 0.873 and the relative viability (EPLC-272H; first compound 2.53 µM) was 0.732. The relative viability (EPLC-272H; first compound 8 µM) was 0.862, the relative viability (H3255; first compound 0.08 µM) was 0.615 and the relative viability (H3255; first compound 0.253 µM) was 0.789. It also gave a relative viability (H3255; first compound 0.8 µM) of 0.638, a relative viability (H3255; first compound 2.53 µM) of 0.828 and a relative viability (H3255; first compound 8 µM) of 0.78. For the same compound, the relative viability (HOP-62; first compound 0.08 µM) was 0.9, the relative viability (HOP-62; first compound 0.253 µM) was 1.11 and the relative viability (HOP-62; first compound 0.8 µM) was 0.95. It also gave a relative viability (HOP-62; first compound 2.53 µM) of 0.926, a relative viability (HOP-62; first compound 8 µM) of 0.765 and a relative viability (LCLC-97TM1; first compound 0.08 µM) of 0.286. For the same compound, the relative viability (LCLC-97TM1; first compound 0.253 µM) was 0.376, the relative viability (LCLC-97TM1; first compound 0.8 µM) was 0.225 and the relative viability (LCLC-97TM1; first compound 2.53 µM) was 0.251. The relative viability (LCLC-97TM1; first compound 8 µM) was 0.271, the relative viability (LXF-289; first compound 0.08 µM) was 1.01 and the relative viability (LXF-289; first compound 0.253 µM) was 0.979. The relative viability (LXF-289; first compound 0.8 µM) was 0.992, the relative viability (LXF-289; first compound 2.53 µM) was 0.973 and the relative viability (LXF-289; first compound 8 µM) was 1.09. For the same compound, the relative viability (NCI-H1563; first compound 0.08 µM) was 0.939, the relative viability (NCI-H1563; first compound 0.253 µM) was 0.969 and the relative viability (NCI-H1563; first compound 0.8 µM) was 0.886. For the same compound, the relative viability (NCI-H1563; first compound 2.53 µM) was 0.974, the relative viability (NCI-H1563; first compound 8 µM) was 0.901 and the relative viability (NCI-H1915; first compound 0.08 µM) was 1.06. It also gave a relative viability (NCI-H1915; first compound 0.253 µM) of 1.09, a relative viability (NCI-H1915; first compound 0.8 µM) of 1.07 and a relative viability (NCI-H1915; first compound 2.53 µM) of 0.51. For the same compound, the relative viability (NCI-H1915; first compound 8 µM) was 1.01, the relative viability (NCI-H1993; first compound 0.08 µM) was 0.694 and the relative viability (NCI-H1993; first compound 0.253 µM) was 0.738. For the same compound, the relative viability (NCI-H1993; first compound 0.8 µM) was 0.66, the relative viability (NCI-H1993; first compound 2.53 µM) was 0.637 and the relative viability (NCI-H1993; first compound 8 µM) was 0.727. For the same compound, the relative viability (NCI-H2009; first compound 0.08 µM) was 1.17, the relative viability (NCI-H2009; first compound 0.253 µM) was 1.14 and the relative viability (NCI-H2009; first compound 0.8 µM) was 1.18. It also gave a relative viability (NCI-H2009; first compound 2.53 µM) of 1.14, a relative viability (NCI-H2009; first compound 8 µM) of 1.03 and a relative viability (NCI-H2023; first compound 0.08 µM) of 0.637. For the same compound, the relative viability (NCI-H2023; first compound 0.253 µM) was 0.715, the relative viability (NCI-H2023; first compound 0.8 µM) was 0.592 and the relative viability (NCI-H2023; first compound 2.53 µM) was 0.419. For the same compound, the relative viability (NCI-H2023; first compound 8 µM) was 0.543, the relative viability (NCI-H2085; first compound 0.08 µM) was 0.974 and the relative viability (NCI-H2085; first compound 0.253 µM) was 1.1. The relative viability (NCI-H2085; first compound 0.8 µM) was 0.957, the relative viability (NCI-H2085; first compound 2.53 µM) was 0.89 and the relative viability (NCI-H2085; first compound 8 µM) was 0.898. For the same compound, the relative viability (NCI-H2126; first compound 0.08 µM) was 0.79, the relative viability (NCI-H2126; first compound 0.253 µM) was 0.826 and the relative viability (NCI-H2126; first compound 0.8 µM) was 0.732. For the same compound, the relative viability (NCI-H2126; first compound 2.53 µM) was 0.621, the relative viability (NCI-H2126; first compound 8 µM) was 0.774 and the relative viability (NCI-H2347; first compound 0.08 µM) was 1.01. The relative viability (NCI-H2347; first compound 0.253 µM) was 0.987, the relative viability (NCI-H2347; first compound 0.8 µM) was 1.12 and the relative viability (NCI-H2347; first compound 2.53 µM) was 0.956. For the same compound, the relative viability (NCI-H2347; first compound 8 µM) was 1.09, the relative viability (NCI-H322M; first compound 0.08 µM) was 0.776 and the relative viability (NCI-H322M; first compound 0.253 µM) was 1.05. It also gave a relative viability (NCI-H322M; first compound 0.8 µM) of 0.821, a relative viability (NCI-H322M; first compound 2.53 µM) of 0.771 and a relative viability (NCI-H322M; first compound 8 µM) of 0.836. It also gave a relative viability (NCI-H647; first compound 0.08 µM) of 0.972, a relative viability (NCI-H647; first compound 0.253 µM) of 1.28 and a relative viability (NCI-H647; first compound 2.53 µM) of 1. The relative viability (NCI-H647; first compound 8 µM) was 0.643, the relative viability (NCI-H661; first compound 0.08 µM) was 0.545 and the relative viability (NCI-H661; first compound 0.253 µM) was 0.477. It also gave a relative viability (NCI-H661; first compound 0.8 µM) of 0.657, a relative viability (NCI-H661; first compound 2.53 µM) of 0.409 and a relative viability (NCI-H661; first compound 8 µM) of 0.718. The relative viability (NCI-H727; first compound 0.08 µM) was 0.467, the relative viability (NCI-H727; first compound 0.253 µM) was 0.76 and the relative viability (NCI-H727; first compound 0.8 µM) was 0.616. For the same compound, the relative viability (NCI-H727; first compound 2.53 µM) was 0.579, the relative viability (NCI-H727; first compound 8 µM) was 0.688 and the relative viability (PC-14; first compound 0.08 µM) was 0.897. For the same compound, the relative viability (PC-14; first compound 0.253 µM) was 1.02, the relative viability (PC-14; first compound 0.8 µM) was 0.904 and the relative viability (PC-14; first compound 2.53 µM) was 0.901. It also gave a relative viability (PC-14; first compound 8 µM) of 1.01, a relative viability (SK-LU-1; first compound 0.08 µM) of 1.04 and a relative viability (SK-LU-1; first compound 0.253 µM) of 1.23. The relative viability (SK-LU-1; first compound 0.8 µM) was 0.909, the relative viability (SK-LU-1; first compound 2.53 µM) was 1.02 and the relative viability (SK-LU-1; first compound 8 µM) was 0.552. For the same compound, the relative viability (SW 1573; first compound 0.08 µM) was 0.711, the relative viability (SW 1573; first compound 0.253 µM) was 0.7 and the relative viability (SW 1573; first compound 0.8 µM) was 0.638. The relative viability (SW 1573; first compound 2.53 µM) was 0.683 and the relative viability (SW 1573; first compound 8 µM) was 0.655.
